For one test, the target named is T1, β3AR (Rattus norvegicus, UniProt P26255).
T1 construct: host or cells: rat, in vivo (bladder)
T1 sequence (P26255 whole entry): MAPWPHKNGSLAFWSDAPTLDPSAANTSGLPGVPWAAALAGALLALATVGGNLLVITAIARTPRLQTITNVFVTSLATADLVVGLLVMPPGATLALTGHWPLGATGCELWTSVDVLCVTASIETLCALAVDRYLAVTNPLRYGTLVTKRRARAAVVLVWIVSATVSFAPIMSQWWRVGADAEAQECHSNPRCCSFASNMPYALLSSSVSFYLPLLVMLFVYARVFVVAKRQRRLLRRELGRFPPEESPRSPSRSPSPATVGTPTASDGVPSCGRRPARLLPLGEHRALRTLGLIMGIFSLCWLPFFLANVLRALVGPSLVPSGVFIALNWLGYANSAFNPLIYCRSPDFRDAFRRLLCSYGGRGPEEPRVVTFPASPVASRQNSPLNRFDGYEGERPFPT
Test: not given
The following applies: rats, intravenous administration, cystometric studies; prolonged micturition interval without increasing residual urine volume; cited from earlier work.
Take `C[C@H](Cc1ccc2c(c1)OC(C(=O)[O-])(C(=O)[O-])O2)NC[C@H](O)c1cccc(Cl)c1.[Na+].[Na+]` [CL316243]: the bladder capacity result is listed as “increases bladder capacity”.

Staying with this test, now noted: rats, intravenous administration; cited from earlier work.
As for `C[C@H](Cc1ccc2c(c1)OC(C(=O)[O-])(C(=O)[O-])O2)NC[C@H](O)c1cccc(Cl)c1.[Na+].[Na+]` [CL316243], the bladder pressure entry is listed as “reduces bladder pressure”.

For a further test, the target named is T2, human β3 adrenergic receptor (Homo sapiens, UniProt P13945).
T2 construct: expressed in transfected cells; host or cells: Chinese hamster ovary (CHO) cells, stably transfected
T2 sequence (P13945 whole entry): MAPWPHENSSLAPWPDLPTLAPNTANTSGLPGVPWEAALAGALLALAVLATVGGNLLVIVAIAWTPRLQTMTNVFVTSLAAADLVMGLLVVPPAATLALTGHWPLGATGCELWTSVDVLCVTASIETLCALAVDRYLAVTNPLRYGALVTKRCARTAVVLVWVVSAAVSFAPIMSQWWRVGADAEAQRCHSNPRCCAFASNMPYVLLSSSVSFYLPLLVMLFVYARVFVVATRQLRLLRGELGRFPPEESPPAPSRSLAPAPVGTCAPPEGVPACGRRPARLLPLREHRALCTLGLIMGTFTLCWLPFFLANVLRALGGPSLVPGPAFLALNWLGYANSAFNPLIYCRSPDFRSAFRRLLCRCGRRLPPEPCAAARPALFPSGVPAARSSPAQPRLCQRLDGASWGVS
Description: Functional assay: cAMP production (LANCE TR-FRET) in CHO cells stably transfected with cloned β3 adrenergic receptor. The format is cell-based. To be noted: Table 4; human β3 functional activity; read-out: Human β Binding. An outline of the steps: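 Agonist-stimulated cAMP in CHO cells stably expressing human β3 receptor, 6,000 cells per well in HBSS/HEPES/0.1% BSA with 0.6 mM IBMX, 30 min at room temperature. LANCE TR-FRET readout converted to cAMP via standard curve; maximal stimulation defined with isoproterenol.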
For `O=C(CN1CCCOC1=O)Nc1ccc(C[C@@H]2CC[C@H]([C@H](O)c3ccccc3)N2)cc1` [Example 98], the EC50 lay in the range of 0.001 to 0.01 µM.

With `O=C(Nc1ccc(C[C@@H]2CC[C@H]([C@H](O)c3ccccc3)N2)cc1)C1CCCN1c1cc(Cl)cc(Cl)c1` (stereo partly shown) [Example 35], the EC50 fell in the range of 0.011 to 0.1 µM.

In the case of `O=C(Nc1ccc(C[C@@H]2CC[C@H]([C@H](O)c3ccccc3)N2)cc1)C1CCCN1c1cccc(Br)c1` (stereo partly shown) [Example 38], the EC50 is 0.001 to 0.01 µM.

`Cc1nc(CC(=O)Nc2ccc(C[C@@H]3CC[C@H]([C@H](O)c4ccccc4)N3)cc2)no1` [Example 74]: the EC50 fell in the range of 0.001 to 0.01 µM.

`O=C(Nc1ccc(C[C@@H]2CC[C@H]([C@H](O)c3ccccc3)N2)cc1)C1CCCN1c1cccc(I)c1` (stereo partly shown) [Example 39]: the EC50 lay in the range of 0.011 to 0.1 µM.

On to `O=C(Cc1nnc(-c2ccc(Cl)cc2)[nH]1)Nc1ccc(C[C@@H]2CC[C@H]([C@H](O)c3ccccc3)N2)cc1` [Example 23], for which the EC50 fell in the range of 0.011 to 0.1 µM.

In the case of `O=C(Cn1ccc(=O)[nH]c1=O)Nc1ccc(C[C@@H]2CC[C@H]([C@H](O)c3ccccc3)N2)cc1` [Example 63], the EC50 lay in the range of 0.001 to 0.01 µM.

`O=C(CCc1nc(-c2ccccc2)no1)Nc1ccc(C[C@@H]2CC[C@H]([C@H](O)c3ccccc3)N2)cc1` [Example 47]: the EC50 was 0.001 to 0.01 µM.

Turning to `O=C(Cc1nnc(-c2ccncc2)[nH]1)Nc1ccc(C[C@@H]2CC[C@H]([C@H](O)c3ccccc3)N2)cc1` [Example 25], the EC50 is 0.011 to 0.1 µM.

Consider `O=C(Cc1ccccc1F)Nc1ccc(C[C@@H]2CC[C@H]([C@H](O)c3ccccc3)N2)cc1` [Example 70], for which the EC50 is 0.011 to 0.1 µM.

Regarding `O=C(Cc1cccnc1)Nc1ccc(C[C@@H]2CC[C@H]([C@H](O)c3ccccc3)N2)cc1` [Example 44], the EC50 was 0.101 to 1 µM.

With `O=C(Nc1ccc(C[C@@H]2CC[C@H]([C@H](O)c3ccccc3)N2)cc1)c1ccccc1-c1nc2ccccc2s1` [Example 14], the EC50 is 0.101 to 1 µM.

The test is the same for the next values; noted with them: Table 5; read-out: Human β3 Functional.
As for `Nc1nc(C(CCF)C(=O)Nc2ccc(CC3CCC(C(O)c4ccccc4)N3)cc2)cs1` (stereo not shown) [Example 222], the EC50 was < 0.001 µM.

For the molecule `CC(C(=O)Nc1ccc(C[C@@H]2CC[C@H]([C@H](O)c3ccccc3)N2)cc1)c1cnccn1` (single isomer, unassigned) [Example 206], the EC50 was in the range of 0.001 to 0.01 µM.

`CC(C(=O)Nc1ccc(C[C@@H]2CC[C@H]([C@H](O)c3ccccc3)N2)cc1)n1cc(C(=O)O)nn1` (single isomer, unassigned) [Example 190]: the EC50 was 0.011 to 0.1 µM.

`Cc1nc2c(s1)CCCC2C(=O)Nc1ccc(C[C@@H]2CC[C@H]([C@H](O)c3ccccc3)N2)cc1` (single isomer, unassigned) [Example 121]: the EC50 lay in the range of 0.001 to 0.01 µM.

As for `O=C(Nc1ccc(C[C@@H]2CC[C@H]([C@H](O)c3ccccc3)N2)cc1)C1CCc2ccc(=O)[nH]c21` (single isomer, unassigned) [Example 135], the EC50 is 0.101 to 1 µM.

For `CC(C(=O)Nc1ccc(C[C@@H]2CC[C@H]([C@H](O)c3ccccc3)N2)cc1)c1cnccn1` (single isomer, unassigned) [Example 207], the EC50 lay within 0.001 to 0.01 µM.

Turning to `CC(C(=O)Nc1ccc(C[C@@H]2CC[C@H]([C@H](O)c3ccccc3)N2)cc1)c1nccs1` (single isomer, unassigned) [Example 201], the EC50 lay within 0.001 to 0.01 µM.

Turning to `CC(C(=O)Nc1ccc(C[C@@H]2CC[C@H]([C@H](O)c3ccccc3)N2)cc1)n1cc(C(=O)O)nn1` (single isomer, unassigned) [Example 191], the EC50 fell in the range of 0.011 to 0.1 µM.

`CCC(C(=O)Nc1ccc(C[C@@H]2CC[C@H]([C@H](O)c3ccccc3)N2)cc1)n1cccn1` (single isomer, unassigned) [Example 219]: the EC50 fell in the range of 0.001 to 0.01 µM.

In the case of `Cc1nnc2n1C(C(=O)Nc1ccc(C[C@@H]3CC[C@H]([C@H](O)c4ccccc4)N3)cc1)CC2` (single isomer, unassigned) [Example 127], the EC50 lay within 0.101 to 1 µM.

Consider `Cc1nc2c(s1)CCC2C(=O)Nc1ccc(C[C@@H]2CC[C@H]([C@H](O)c3ccccc3)N2)cc1` (single isomer, unassigned) [Example 118], for which the EC50 lay in the range of 0.001 to 0.01 µM.

For `CC(C(=O)Nc1ccc(C[C@@H]2CC[C@H]([C@H](O)c3ccccc3)N2)cc1)c1nnc[nH]1` (single isomer, unassigned) [Example 168], the EC50 was in the range of 0.001 to 0.01 µM.

`CC(C(=O)Nc1ccc(C[C@@H]2CC[C@H]([C@H](O)c3ccccc3)N2)cc1)n1cccnc1=O` (single isomer, unassigned) [Example 161]: the EC50 is < 0.001 µM.

Staying with this test, now noted: Table 7; β3AR-cAMP; read-out: Human β3 Functional.
As for `O=S(=O)(Nc1ccc(C[C@@H]2CC[C@H]([C@H](O)c3ccccc3)N2)cc1)c1cccc2ncccc12` [Example 238], the EC50 was 0.101 to 1 µM.

The same test, now with this note: Table 9; read-out: Human β^3 Functional.
As to `CC(NC(=O)c1cc[nH]n1)C(=O)Nc1ccc(C[C@@H]2CC[C@H]([C@H](O)c3ccccc3)N2)cc1` (stereo partly shown) [Example 271], the EC50 is < 0.001 µM.

The same test, now with this note: Table 11; read-out: Human β3 Functional.
For `Nc1nc2c(s1)CCC2C(=O)Nc1ccc(CC2CCC(C(O)c3ccc(F)cc3)N2)cc1` (single isomer, unassigned) [Example 283], the EC50 is < 0.001 µM.

Still in this test, the particulars now being: Table 12; read-out: Human β3 Functional.
Take `Nc1nc2c(s1)CCC2C(=O)Nc1ccc(CC2CCC(C(O)c3ccc(F)c(F)c3)N2)cc1` (single isomer, unassigned) [Example 291]: the EC50 was 0.011 to 0.1 µM.

Still in this test, the particulars now being: given as a range; cAMP, CHO cells; read-out: human β3 functional activity.
`C[C@H](NS(=O)(=O)c1ccc(F)cc1)C(=O)Nc1ccc(C[C@@H]2CC[C@H]([C@H](O)c3ccccc3)N2)cc1` [Example 264, (2S)-2-{[(4-Fluorophenyl)sulfonyl]amino}-N-[4-({(2S,5R)-5-[(R)-hydroxy(phenyl)methyl]pyrrolidin-2-yl}methyl)phenyl]propanamide]: the EC50 fell in the range of 0.011 to 0.1 µM.

Take `O=S(=O)(Nc1ccc(C[C@@H]2CC[C@H]([C@H](O)c3ccccc3)N2)cc1)c1ccc(-c2nc(-c3ccc(C(F)(F)F)cc3)cs2)cc1` [Example 233, N-[4-({(2S,5R)-5-[(R)-hydroxy(phenyl)methyl]pyrrolidin-2-yl}methyl)phenyl]-4-{4-[4-(trifluoromethyl)phenyl]-1,3-thiazol-2-yl}benzenesulfonamide]: the EC50 was 0.001 to 0.01 µM.

The same test, now with this note: human β3 functional activity, shown as ranges; Table 14; read-out: Human β3 Functional.
On to `Nc1nc2c(s1)CCC2C(=O)Nc1ccc(CC2CCC(C(O)c3cccc(Cl)c3)N2)cc1` (single isomer, unassigned) [Example 310], for which the EC50 was < 0.001 µM.

Values taken from patent US8399480B2, “Hydroxymethyl pyrrolidines as beta 3 adrenergic receptor agonists” (Merck Sharp & Dohme Corp., priority 2008, dated 2013).
